Experimental data reported in patent publication US11554188B2, “Anti-viral dry cleaning process” ([…], LLC, priority 2020, dated 2023).
Where “and” joins values, the source holds several entries; their conditions need not be identical. Equal values may be shown once. Read-outs that look alike come from different tables or passages of the source.

Tests used:
Format in all cases: cell-based
[1] = test system: SARS-CoV-2 strain USA-WA1/2020; details: for Averaged Test Sample Percent Log Reduction to Averaged Virus Controls: averaged over 15, 30, 45 min
[2] = test system: SARS-CoV-2 strain USA-WA1/2020; details: Silicone wash, and spin cycle, time 45 min
[3] = test system: SARS-CoV-2 strain USA-WA1/2020; assay: Drying cycle and washing cycle combined test results (complete dry cleaning process); details: for Averaged Test Sample Percent Log Reduction of complete dry cleaning process: wash/spin results combined with heat, liquid and vapor results
Source text: Data shown in Table 2 represents the individual dry cleaning process percent log reduction to the control samples for each coupon set at each process time, and averaged percent reduction of each process on viral deactivation. The silicone wash and spin rinse tests were combined with the heat, silicone liquid, and vapor exposure process results to define the overall percent viral reduction of the complete dry cleaning process. A plot showing the percent log reduction efficacy of each of the simulated dry cleaning processes and the total process in deactivating SARS-CoV-2 infected wool blend fabric material is shown in FIG. 2.
This testing was conducted to provide an accurate simulation of patented dry cleaning process in a laboratory environment.
It should be noted, that in one simulation of the drying cycle, the combination of heat, vapor, and liquid condition produced a percent log reduction to virus control of 98.00%.

[4] = Heat + Liquid + Vapor, 70° C., 15 min
[5] = Heat + Liquid + Vapor, 70° C., 30 min
[6] = Heat + Liquid + Vapor, 70° C., 45 min
[7] = Heat + Silicone Liquid, 70° C., 15 min
[8] = Heat + Silicone Liquid, 70° C., 30 min
[9] = Heat + Silicone Liquid, 70° C., 45 min
[10] = Heat + Silicone Vapor, 70° C., 15 min
[11] = Heat + Silicone Vapor, 70° C., 30 min
[12] = Heat + Silicone Vapor, 70° C., 45 min
[13] = samples G5-15 (condition cell blank; heat + liquid + vapor per Table 2), 15 min
[14] = samples G5-30 (condition cell blank; heat + liquid + vapor per Table 2), 30 min
[15] = samples G5-45 (condition cell blank; heat + liquid + vapor per Table 2), 45 min
[16] = Complete cycle - silicone wash, spin, heat and vapor, time 45 min
[17] = Silicone wash, and spin cycle, time 45 min

C[Si]1(C)O[Si](C)(C)O[Si](C)(C)O[Si](C)(C)O[Si](C)(C)O1 [D5, decamethylcyclopentasiloxane]
TCID50 (individual sample) ([1]; D5 Liquid Only Control, 45 min): 31.62
Avg TCID50 ([1]; Heat & D5 Liquid, 15 min): 789.8
TCID50 (individual sample) ([1]; Heat & D5 Liquid, 15 min): 316.2 and 794.3 and 1258.9254
Avg TCID50 ([1]; Heat & D5 Liquid, 30 min): 1125
TCID50 (individual sample) ([1]; Heat & D5 Liquid, 30 min): 879.9254 and 501.2 and 1995.2623
Avg TCID50 ([1]; Heat & D5 Liquid, 45 min): 1590
TCID50 (individual sample) ([1]; Heat & D5 Liquid, 45 min): 1258.9254 and 1415.1212 and 2096.18
Avg TCID50 ([1]; Heat & D5 Vapor, 15 min): 3389.8041
TCID50 (individual sample) ([1]; Heat & D5 Vapor, 15 min): 1995.2623 and 5011.8723 and 3162.2777
Avg TCID50 ([1]; Heat & D5 Vapor, 30 min): 2510
TCID50 (individual sample) ([1]; Heat & D5 Vapor, 30 min): 5011.8723 and 1258.9254 (2×)
Avg TCID50 ([1]; Heat & D5 Vapor, 45 min): 2983
TCID50 (individual sample) ([1]; Heat & D5 Vapor, 45 min): 3162.2777 and 3690.622 and 2096.18
Average of Test Replicates Log10 TCID50 [1, 4]: 1.98
Average of Test Replicates TCID50 [1, 4]: 94.92
Log10 Reduction to virus control [1, 4]: 1.70
Percent Log Reduction to Virus Control [1, 4]: 98.00%
Percent Log Reduction to Virus Control ([1]; Heat + Liquid + Vapor, 70° C., 15 min, listed as Silicone): 98.00%
Average of Test Replicates Log10 TCID50 [1, 5]: 2.14
Average of Test Replicates TCID50 [1, 5]: 138.31
Log10 Reduction to virus control [1, 5]: 1.54
Percent Log Reduction to Virus Control [1, 5]: 97.09%
Average of Test Replicates Log10 TCID50 [1, 6]: 2.37
Average of Test Replicates TCID50 [1, 6]: 232.01
Log10 Reduction to virus control [1, 6]: 1.31
Percent Log Reduction to Virus Control [1, 6]: 95.12%
Averaged Test Sample Percent Log Reduction to Averaged Virus Controls ([1]; Heat + Liquid + Vapor, 70° C.): approximately 96.7%
Averaged Test Sample Percent Log Reduction to Averaged Virus Controls ([1]; Heat + Liquid + Vapor, 70° C., listed as Silicone): 96.74%
Average of Test Replicates Log10 TCID50 [1, 7]: 2.90
Average of Test Replicates TCID50 [1, 7]: 789.83
Log10 Reduction to virus control [1, 7]: 0.78
Percent Log Reduction to Virus Control [1, 7]: 83.39%
Average of Test Replicates Log10 TCID50 [1, 8]: 3.05
Average of Test Replicates TCID50 [1, 8]: 1125.46
Log10 Reduction to virus control [1, 8]: 0.63
Percent Log Reduction to Virus Control [1, 8]: 76.34%
Average of Test Replicates Log10 TCID50 [1, 9]: 3.20
Average of Test Replicates TCID50 [1, 9]: 1590.08
Log10 Reduction to virus control [1, 9]: 0.48
Percent Log Reduction to Virus Control [1, 9]: 66.57%
Averaged Test Sample Percent Log Reduction to Averaged Virus Controls ([1]; Heat + Silicone Liquid, 70° C.): approximately 75.4%
Averaged Test Sample Percent Log Reduction to Averaged Virus Controls ([1]; Heat + Silicone Liquid, 70° C., listed as Silicone): 75.43%
Average of Test Replicates Log10 TCID50 [1, 10]: 3.53
Average of Test Replicates TCID50 [1, 10]: 3389.80
Log10 Reduction to virus control [1, 10]: 0.15
Percent Log Reduction to Virus Control [1, 10]: 28.72%
Average of Test Replicates Log10 TCID50 [1, 11]: 3.40
Average of Test Replicates TCID50 [1, 11]: 2509.91
Log10 Reduction to virus control [1, 11]: 0.28
Percent Log Reduction to Virus Control [1, 11]: 47.23%
Average of Test Replicates Log10 TCID50 [1, 12]: 3.47
Average of Test Replicates TCID50 [1, 12]: 2983.03
Log10 Reduction to virus control [1, 12]: 0.20
Percent Log Reduction to Virus Control [1, 12]: 37.28%
Averaged Test Sample Percent Log Reduction to Averaged Virus Controls ([1]; Heat + Silicone Vapor, 70° C.): 37.74%
Average of Test Replicates Log10 TCID50 ([1]; Silicone Liquid Control, room temperature (23° C.), 45 min): 1.50
Average of Test Replicates TCID50 ([1]; Silicone Liquid Control, room temperature (23° C.), 45 min, wool blend coupons): 31.62
Avg TCID50 [1, 13]: 91.92
TCID50 (individual sample) [1, 13]: 79.43 (2×) and 125.9
Avg TCID50 [1, 14]: 138.3
TCID50 (individual sample) [1, 14]: 209.618 and 79.43 and 125.9
Avg TCID50 [1, 15]: 232.1
TCID50 (individual sample) [1, 15]: 125.9 (2×) and 444.2
Average of Test Replicates TCID50 ([2]; 89 mL, 35 RPM 16 min, spin 500 rpm 4 min): 35138.40
Average of Test Replicates Log10 TCID50 [2]: 4.54
Averaged Test Sample Percent Log Reduction of complete dry cleaning process [2]: 56.18%
Log10 Reduction to virus control [2]: 0.36
Percent Log Reduction to Virus Control [2]: 56.18%
Percent Log Reduction to Virus Control ([2]; listed as Silicone): 56.18%
Average of Test Replicates Log10 TCID50 [3, 16]: 4.54
Average of Test Replicates TCID50 [3, 16]: 35138.40
Averaged Test Sample Percent Log Reduction of complete dry cleaning process ([3]; Complete cycle - silicone wash, spin, heat and vapor): approximately 98.6%
Averaged Test Sample Percent Log Reduction of complete dry cleaning process ([3]; Complete cycle - silicone wash, spin, heat and vapor, listed as Silicone): 98.57%
Log10 Reduction to virus control [3, 17]: 0.36
Percent Log Reduction to Virus Control [3, 17]: 56.18%
optimized calculated log reduction to the average virus controls ([3]; serial combination of 56.18% wash cycle reduction and 98.00% drying cycle reduction (heat, vapor, liquid)): 99.12%
